What is called logP is a log measure of how a compound divides between an organic and an aqueous phase. The low end stands for a more hydrophilic compound, the high end for a more lipophilic compound.

Each structure is given as a SMILES string.

This is an account of results in the SangsterLogP compilation.

Consider `O=C1OCCC1N1CCN(c2ccc(F)cc2)CC1` (centres undefined), for which the logP amounted to 2.05. Compound `O=C1OCCC1N1Cc2ccccc2C1` (centres undefined) displayed a logP of 1.2.

Compound `O=C1CC(N2CCN(c3ccccc3)CC2)CO1` (centres undefined) came in with a logP of 1.22. As for `O=C(Cc1ccccc1)NC1CCOC1=O` (centres undefined), the logP was found to be 0.8. `O=C1OCCC1N1CCN(c2ccccc2)CC1` (centres undefined): the logP is 1.65. In turn, `COc1ccccc1N1CCN(C2CCOC2=O)CC1` (centres undefined) gave a logP of 1.44. Consider `CC(Nc1ccccc1)=C1CCOC1=O`, for which the logP turned out to be 2.27. `CC(NCc1ccccc1)=C1CCOC1=O`: the logP is 2.21. The logP values of the last two compounds are within 0.2 log units of each other.

`O=C1OCCC1N1CCN(c2cccc(C(F)(F)F)c2)CC1` (centres undefined) returned a logP of 2.94. On to `O=C1OCCC1NCc1ccccc1` (centres undefined), for which the logP amounted to 1.47. The value for `COc1ccc(N2CCN(C3CCOC3=O)CC2)cc1` (centres undefined) was 1.46; that for `NC(=O)c1ccccc1OC1CCOC1=O` (centres undefined) was 0.93.

Consider `O=C1OCCC1NCc1ccc(Cl)cc1` (centres undefined), for which the logP worked out at 1.97. Compound `COc1cccc(N2CCN(C3CCOC3=O)CC2)c1` (centres undefined) gave a logP of 2.29. As for `COc1ccc(Cl)cc1N1CCN(C2CCOC2=O)CC1` (centres undefined), the logP stood at 1.18. The value for `COc1ccc(CNC2CCOC2=O)cc1` (centres undefined) was 1.43. Regarding `O=C1OCCC1N1CCN(C(c2ccccc2)c2ccccc2)CC1` (centres undefined), the logP worked out at 3.28.

For the compound `O=C(NC1CCOC1=O)c1ccccc1` (centres undefined), the logP came to 0.84.

The compound `COc1ccc(CCNC(C)=C2CCOC2=O)cc1OC` showed a logP of 2.53. As for `O=C1OCCC1N1CCC(c2ccccc2)CC1` (centres undefined), the logP came out at 2.43.

Compound `CC1CC(NCc2ccccc2)C(=O)O1` (centres undefined) returned a logP of 1.76. In turn, `O=C1OCCC1NCc1ccccc1C(F)(F)F` (centres undefined) yielded a logP of 1.83. With `COc1cc2c(cc1OC)CN(C1CCOC1=O)CC2` (centres undefined), the logP came to 1.83.

`CC1CC(N2CCN(c3ccccc3)CC2)C(=O)O1` (centres undefined) had a logP of 1.56. Compound `O=C1OCCC1N1CCc2ccccc2C1` (centres undefined) had a logP of 1.6.

As to `COc1cc2c(cc1OC)C(c1ccccc1)N(C1CCOC1=O)CC2` (centres undefined), the logP was found to be 3.12.

For `Cc1cccc(C)c1NC1CCOC1=O` (centres undefined), the logP was 1.39.

Compound `O=C1OCCC1Oc1ccc(Oc2ccccc2)cc1` (centres undefined) gave a logP of 1.32. For `O=C1OCCC1N1C(=O)c2ccccc2C1=O` (centres undefined), the logP was 1.11.
